Measured values published in paper PMC7522982, “PKIS deep dive yields a chemical starting point for dark kinases and a cell active BRSK2 inhibitor” (Scientific Reports, 2020).
Values joined by “and” are separate entries in the source; they are usually repeats but may differ in a detail not shown here. Equal values may be shown once. Read-outs that look alike come from different tables or passages of the source.

Experiments:
BRSK2 = molecular target: T1, BRSK2 (Homo sapiens, UniProt Q8IWQ3); design: purchased Eurofins; conditions: 0.5 μM; cited from earlier work
T1 sequence (Q8IWQ3 1-736): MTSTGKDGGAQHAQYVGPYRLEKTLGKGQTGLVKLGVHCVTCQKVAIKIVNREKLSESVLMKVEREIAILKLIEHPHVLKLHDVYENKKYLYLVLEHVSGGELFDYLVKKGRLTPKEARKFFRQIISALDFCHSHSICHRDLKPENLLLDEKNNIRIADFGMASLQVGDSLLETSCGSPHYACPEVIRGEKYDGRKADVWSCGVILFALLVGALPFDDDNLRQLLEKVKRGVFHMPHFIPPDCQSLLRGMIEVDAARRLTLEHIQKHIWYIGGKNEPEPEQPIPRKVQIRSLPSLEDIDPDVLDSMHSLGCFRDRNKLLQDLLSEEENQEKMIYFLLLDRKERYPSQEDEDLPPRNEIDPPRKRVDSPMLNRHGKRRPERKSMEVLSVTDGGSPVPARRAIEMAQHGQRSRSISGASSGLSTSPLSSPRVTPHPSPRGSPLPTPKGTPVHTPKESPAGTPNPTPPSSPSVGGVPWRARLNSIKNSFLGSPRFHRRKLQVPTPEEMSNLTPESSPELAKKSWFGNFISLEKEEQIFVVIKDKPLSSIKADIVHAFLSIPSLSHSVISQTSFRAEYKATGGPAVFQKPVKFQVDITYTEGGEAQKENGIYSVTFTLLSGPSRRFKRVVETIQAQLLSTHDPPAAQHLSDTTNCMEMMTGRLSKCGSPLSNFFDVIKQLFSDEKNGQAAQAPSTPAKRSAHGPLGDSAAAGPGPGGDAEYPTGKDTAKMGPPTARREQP

[1] = molecular target: T2, NLuc-BRSK2 in HEK293 cells (Homo sapiens, UniProt Q8IWQ3); assay: BRSK2 NanoBRET cellular target engagement assay; type: cell-based; conditions: HEK293 cells transiently expressing NLuc-BRSK2, Tracer K5 1 μM, N = 3
T2 construct: host or cells: HEK293
T2 sequence (Q8IWQ3 1-736): T1 sequence (Q8IWQ3 1-736)
Experimental: Our interest in illuminating BRSK2 biology motivated further investigation of the cellular target engagement of BRSK2 by GW296115 using our NanoBRET assay. BRSK2 kinase was fused to 19-kDa luciferase (NLuc) at its N-terminus (NLuc–BRSK2) which was transiently expressed in HEK293 cells, and then incubated with a cell-permeable fluorescent energy transfer probe (tracer)[23].
NanoBRET assays were executed as described previously. Constructs for BRSK2 NanoBRET measurements were provided in kind by Promega. The N-terminal Nanoluciferase (NL)/BRSK2 fusion (NL-BRSK2) was encoded in pFN32K expression vector, including flexible Gly-Ser-Ser-Gly linkers between NL and BRSK2 (Promega). For cellular BRSK2 NanoBRET target engagement experiments, a 10 μg/mL solution of DNA in Opti-MEM without serum (Gibco) was prepared with 9 μg/mL of Carrier DNA (Promega) and 1 μg/mL of NL-BRSK2 to achieve a total volume of 1.05 mL. To this solution was then added 31.5 μL of FuGENE HD (Promega) to form a lipid:DNA complex, mixed by inversion 8 times, and incubated at room temperature for 20 min. The resulting transfection complex (1.082 mL) was next gently mixed with HEK293 cells (21 mL) suspended at a density of 2 × 10^5 cells/mL in DMEM containing 10% FBS.
After 24 h, media was removed via aspiration and 85 μL of room temperature Opti-MEM without phenol red (Gibco) was added to each well. […] Next, 5 μL (20 × working stock of NanoBRET Tracer K5 [20 μM] in Tracer Dilution Buffer (Promega N291B)) was added to each well with the exception of the “no tracer” control wells. Test compounds were prepared as concentrated stock solutions in 100% DMSO (Sigma) at a concentration of 10 mM. […] A volume of 10 μL of tenfold test compound stock solutions (final assay concentration of […]) was added to each well. For “no compound” and “no tracer” control wells, 10 μL of Opti-MEM plus DMSO (9 μL Opti-MEM plus 1 μL DMSO) was added to each well to achieve a final concentration of 1% DMSO.
After 2 h, plates were returned to room temperature over the course of 15 min. […] Next, 50 μL of the 3 × substrate/extracellular NL inhibitor stock was added to each well.
Test compounds were evaluated at 8 concentrations in competition with NanoBRET Tracer K5 in HEK293 cells transiently expressing the NL-BRSK2 fusion protein. Raw milliBRET (mBRET) values were obtained by dividing the acceptor emission values (600 nm) by the donor emission values (450 nm), and then multiplying by 1000. Averaged control values were used to represent complete inhibition (no tracer control: transfected cells in Opti-MEM + DMSO; tracer control: transfected cells in Opti-MEM + DMSO + Tracer K5 only), and were plotted alongside the raw mBRET values. The data with n = 3 biological replicates was first normalized and then fit using Sigmoidal, 4PL binding curve in Prism Software (version 8, GraphPad, La Jolla, CA, USA).

[2] = read-out: BRSK2 NanoBRET data IC50

SMILES	IC50 [1, 2]	further results
O=C1NC(=O)C(c2c[nH]c3ccccc23)=C1c1c[nH]c2ccccc12 [Bisindolylmaleimide IV, bisindolylmaleimide IV]		biochemical inhibition of BRSK2 (BRSK2): weak biochemical inhibition
O=C1NC(=O)c2c1c1c3ccccc3[nH]c1c1[nH]c3cc(Br)ccc3c21 [CDK4 inhibitor]	1330 ± 230 nM	
O=C1NC(=O)c2c1c1c3ccccc3n3c1c1c2c2ccccc2n1C1CCC3O1 [SB 218078]	883 ± 200 nM	
O=C1NC(=O)c2c1c1c3ccccc3[nH]c1c1[nH]c3ccccc3c21 [Arcyriaflavin A]	7680 ± 3500 nM	
O=C1NCc2c1c1c3ccccc3[nH]c1c1[nH]c3ccccc3c21 [K-252c]		IC50 ([1]; BRSK2 NanoBRET data IC50 (nM)): 308 ± 250 nM
Cn1c2ccccc2c2c3c(c4c5ccccc5n(CCC#N)c4c21)CNC3=O [Gö 6976]	914 ± 640 nM	
COC(=O)C1(O)CC2OC1(C)n1c3ccccc3c3c4c(c5c6ccccc6n2c5c31)C(=O)NC4 (stereo not shown) [K-252a]		IC50 ([1]; BRSK2 NanoBRET data IC50 (nM)): 20.2 nM and < 100 nM
